Literature values in patent US10299493B2, “Dietary supplement compositions with enhanced delivery matrix, gummies, chocolates, atomizers and powders containing same, and methods of making same” (priority 2013, dated 2019).

Conditions: temperature of 20° C.

Question: Which solubility in water does the source give for `C/C=C/C=C/C(=O)[O-].[K+]` [Potassium sorbate] here?
Answer: Its solubility in water is 58.2%.
